The numbers were not newly measured in patent US9150582B2, “Composition and method for neuropeptide S receptor (NPSR) antagonists” (RESEARCH TRIANGLE INSTITUTE, priority 2011, dated 2015), which cites them from elsewhere.

“Also recorded” adds a separate entry of the source.

One data set deals with T1, NPSR Ile^107 variant (Homo sapiens, UniProt Q6W5P4, N107I).
T1 sequence (Q6W5P4 1-371 N107I): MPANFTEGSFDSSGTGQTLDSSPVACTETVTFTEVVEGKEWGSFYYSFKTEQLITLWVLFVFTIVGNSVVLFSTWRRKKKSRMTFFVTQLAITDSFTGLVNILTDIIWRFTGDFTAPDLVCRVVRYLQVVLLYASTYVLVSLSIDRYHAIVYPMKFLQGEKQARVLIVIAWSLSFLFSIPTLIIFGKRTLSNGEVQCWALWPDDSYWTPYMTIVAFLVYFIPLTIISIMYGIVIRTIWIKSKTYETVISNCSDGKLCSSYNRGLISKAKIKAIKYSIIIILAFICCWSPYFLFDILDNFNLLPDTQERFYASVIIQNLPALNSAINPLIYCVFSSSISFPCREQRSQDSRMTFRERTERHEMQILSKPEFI
The following applies: calcium flux.

The target in the next data set is T2, NPSR-C0Alt (Homo sapiens, UniProt Q6W5P4).
T2 sequence (Q6W5P4 1-377 isoform Q6W5P4-4): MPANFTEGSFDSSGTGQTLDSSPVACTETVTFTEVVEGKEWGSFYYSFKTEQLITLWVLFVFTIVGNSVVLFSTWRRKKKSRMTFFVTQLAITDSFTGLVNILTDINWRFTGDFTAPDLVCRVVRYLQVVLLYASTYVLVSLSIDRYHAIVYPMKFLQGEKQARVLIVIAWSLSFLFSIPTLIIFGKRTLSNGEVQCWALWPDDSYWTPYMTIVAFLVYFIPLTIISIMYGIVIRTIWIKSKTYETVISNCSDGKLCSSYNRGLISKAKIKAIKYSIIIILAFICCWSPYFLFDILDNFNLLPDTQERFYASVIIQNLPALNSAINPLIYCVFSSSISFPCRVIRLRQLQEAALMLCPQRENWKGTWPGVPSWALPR
The following applies: functional assay.

For data set [1], the system named is mice. The following applies: i.c.v., habituated and naive mice.
Data set [2] relates to mice. As to conditions: elevated plus maze, light dark box, marble burying.
Data set [3] has as its system mice. The following applies: 0.1 nMol NPS.
Data set [4] deals with mice. The following applies: i.c.v.
For data set [5] the following is noted: i.c.v.
The test system of data set [6] is mice.
For data set [7], the system named is basolateral amygdala (BLA). As to conditions: 0.1 nM injected into BLA.

On to “NPS: Human Neuropeptide S, 20 residue peptide SFRNGVGTGMKKTSFQRAKS (SEQ ID NO: 1), agonist of NPSR (Human)”, for which the “enhancement in functional sensitivity, Ile107 variant over Asn107” value in the data set with NPSR Ile^107 variant is on record as “five to ten fold enhancement”. Also, in the data set with NPSR-C0Alt, the “potency at NPSR-C0Alt, lower versus the 107I variant” value is 30 fold. The locomotor activity result with mice [1] is reported as “increased locomotor activity; also recorded: increase in locomotor activity”. In the data set with mice [2], the anxiolytic-like behaviors entry is reported as “anxiolytic-like behaviors”. Also, the “amount of stage 1 and 2 slow wave sleep and REM sleep” value with mice [3] (compared to saline) is reported as “significantly reduced”. In the data set with mice [3] (mice, saline 45%), the “first hour of wakefulness” value was 69%. Also, in the data set with mice [4], the “formerly extinguished cocaine seeking behaviors” value is listed as “dose-dependently increased”. Besides, in data set [5], the “performance in novel recognition assays” value was “dose-dependently improves performance”. Moreover, the “fear response (freezing behavior), administration pre-testing” value in the data set on mice [6] (NPS given pre-testing) is on record as “decreased the fear response”. Moreover, in the data set with mice [6] (NPS given pre-training), the “fear response, administration pre-training” value is on record as “no effect on fear response”. For the same substance, in data set [7], the “anxiolytic activity at low dose” value was “No anxiolytic activity was observed” and the contextual fear memories entry is “significantly reduced contextual fear memories”.
